Data as given in patent US20250025451A1, “TREATMENT OF CANCER WITH KDM4 INHIBITORS” (Celgene Corporation, priority 2021, published 2025).
Read-outs that look alike come from different tables or passages of the source.

Tests used:
[1] = system: KYSE-150 human esophageal cancer xenograft; assay type: in vivo; conditions: for Median Tumor Volumes Day 21: KYSE-150 CDX Study #2, female NOD/SCID mice; for % TGI / Median Tumor Volumes Diff.: KYSE-150 Study #2; for % TGI: Day 21; for Median Tumor Volumes Diff.: Day 21 minus Day 1
Protocol: The therapeutic in vivo efficacy of Compound 1 was evaluated in SU60 colorectal cancer, KYSE-150 esophageal cancer, COH70 triple-negative breast cancer, GXA-3036 gastric adenocarcinoma and OCI-LY19 Diffuse Large B-Cell Non-Hodgkin's Lymphoma xenograft models. In all studies, efficacy was determined based on percent tumor growth inhibition (TGI), differences in mean tumor growth, and statistical assessment of differences in net tumor volume distributions on the day of TGI analysis between control and treated animals. Tolerability was assessed based on differences in mean body weights between control and treated animals over the course of the study.
Study #2—The in vivo therapeutic efficacy and tolerability of Compound 1, administered orally as the lysine salt suspended in a vehicle comprised of 10% PEG 400 and 90% of 0.5% MC, was evaluated in the KYSE-150 ESCC CDX model established in female NOD/SCID mice. Each mouse was inoculated subcutaneously in the right flank with 1×10^7 KYSE-150 tumor cells (0.1 ml) suspended in 50% Matrigel. When the average tumor size reached ˜153 mm3, test animals were randomized into 4 groups consisting of 8 mice per group and treatments were initiated. Control mice received 10% PEG 400 and 90% of 0.5% MC vehicle PO QDx21. Treated mice received the Compound 1 lysine salt form suspended in vehicle at 10, 15, or 20 mg/kg on the same schedule. TGI was determined on Day 21 as (1−Difftreated/Diffcontrol)×100. Individual tumors were measured twice weekly in two dimensions using a caliper, and the tumor volumes (TV) in mm3 were calculated using the formula: TV=0.5 a×b2, where a and b are the long and short tumor diameters in mm, respectively; Mean tumor volumes±SEM were calculated and plotted versus days of dosing (FIG. 12 left panel). Body weights were measured twice weekly. Body weights±SEM were calculated and plotted versus days of dosing (FIG. 12 right panel).
The difference in mean net tumor volumes on the day of TGI analysis for treated versus control animals was evaluated statistically using one-way ANOVA followed by Dunnetts multiple comparisons test. Adjusted p-values are shown where a calculated probability (p)≤0.05 was considered statistically significant.

[2] = system: SU34 patient-derived colon cancer organoid model; test: organoid colony formation assay, SU34; assay type: cell-based, human
Protocol: (§1) The IC50 values for Compound 1 inhibition of colony formation and viability were determined for the patient-derived colon cancer organoid models: SU60, T002C, SU62, SU34, SU103, T03SC, and SU106, patient-derived pancreatic cancer organoid models PA016SF, PA0143F, T016P, and T028P, and a patient-derived breast cancer organoid model FS5S3.
(§2) Colony formation and viability assays were performed in multiwell plates seeded with organoids using an in vitro culture system composed of a Matrigel layer, media containing a defined set of growth factors, and co-culture with Wnt3 A-secreting mouse embryonic fibroblasts. Assays were initiated by adding either DMSO as a negative control, or an inhibitor panobinostatat 100×IC50 concentration as a positive control, or serially diluted Compound 1. The cultures were incubated for 168 or 144 hours after which the number of viable organoids in each test well was assessed respectively using one of two detection methods: CTG or staining with calcein-AM followed by imaging and colony counting. Colony count or viability of cells treated with compound 1 was expressed as a percent of the negative control. Aggregated Percent of Control values were plotted against the corresponding Compound 1 concentration and the absolute IC50 value was determined from a non-linear regression curve as the concentration where inhibition was 50% of the control.

MCF-7 = test: cell-proliferation assay (MTS), MCF-7; assay type: cell-based; conditions: MCF-7, human breast carcinoma
Protocol: (§3) Compound 1 was evaluated in in vitro cell-proliferation assays (BrdU assay, MTS assay, or Cell Titer Glo (CTG) assay) in multiple cancer cell lines and patient-derived organoid models to determine half-maximal inhibitory concentrations (IC50s).
(§4) Viability and BrdU thymidine incorporation assays were performed in multiwell plates seeded with cells in growth medium. After seeding, multiwell plates were cultured for 24 hours in a humidified incubator at 37° C. to promote adherence. […] The cultures were incubated for 168 hours after which the number of viable cells or the amount of thymidine incorporation in each test well was assessed by the methods as indicated above. Readouts were performed using an EnVision® Multilabel Reader (PerkinElmer, Waltham, MA) and the results were expressed as a percent of the negative control. Percent of Control values were plotted against the corresponding Compound 1 concentration and the relative IC50 value was determined from a non-linear regression curve as the concentration where inhibition was half-maximal. For cell lines where the number of IC50 determinations exceeded one, the IC50 was expressed as the mean IC50±SD.
(§5) Half-maximal inhibitory concentration (IC50) values for Compound 1 inhibition of cell proliferation were determined for nine cancer cell lines and one normal human fibroblastcell line.

[3] = system: SU103 patient-derived colon cancer organoid model; test: organoid colony formation assay, SU103; assay type: cell-based, human
Protocol: as §1, §2

[4] = system: SU62 patient-derived colon cancer organoid model; test: organoid colony formation assay, SU62; assay type: cell-based, human
Protocol: as §1, §2

H3K36me3 = test: dose-dependent inhibition of histone demethylase, H3K36me3 immunoblot; assay type: cell-based; conditions: FIG. 6
Protocol: FIG. 6 illustrates the dose-dependent inhibition of histone demethylase by Compound 1. Left Panel: Representative immunoblot showing change in staining intensity for actin (red bands) and H3K36me3 (green bands) in response to Compound 1 at various concentrations. Right Panel: Normalized ratio of band intensities for H3K36me3 and actin versus the concentration of Compound 1 (μM). (mean IC50±SD value−0.085±0.004 μM).

HT-29 = test: cell-proliferation assay (BrdU, CTG), HT-29; assay type: cell-based; conditions: HT-29, human colorectal adenocarcinoma, mean
Protocol: as §3, §4, §5

Structure (SMILES): CC(C)c1ccc(N(C)c2ccc3c(c2)OCC[C@H]3CNc2cnccc2C(=O)O)cc1 [Compound 1, 3-({[(4R)-7-{methyl[4-(propan-2-yl)phenyl]amino}-3,4-dihydro-2H-1-benzopyran-4-yl]methyl}amino)pyridine-4-carboxylic acid]
- Median Tumor Volumes Day 21 ([1]; lysine salt 10 mg/kg (free acid equivalents) PO QD x21): 1027 mm^3
- Median Tumor Volumes Day 21 ([1]; lysine salt 15 mg/kg (free acid equivalents) PO QD x21): 620 mm^3
- Median Tumor Volumes Day 21 ([1]; lysine salt 20 mg/kg (free acid equivalents) PO QD x21): 469 mm^3
- % TGI ([1]; 10 mg/kg PO QD x21): 54%
- Median Tumor Volumes Diff. ([1]; 10 mg/kg PO QD x21): 876 mm^3
- % TGI ([1]; 15 mg/kg PO QD x21): 76%
- Median Tumor Volumes Diff. ([1]; 15 mg/kg PO QD x21): 468 mm^3
- % TGI ([1]; 20 mg/kg PO QD x21): 84%
- Median Tumor Volumes Diff. ([1]; 20 mg/kg PO QD x21): 315 mm^3
- IC50 ([2]; Homo sapiens, SU34 colorectal carcinoma model): > 10 µM
- IC50 ([2]; SU34 human colorectal carcinoma organoid, 144 hrs, Colony Counts): > 10 µM
- IC50 (MCF-7; Homo sapiens, MCF7, 168 h): < 0.04 µM
- IC50 (MCF-7; 168 hours): 0.037 µM
- IC50 ([3]; Homo sapiens, SU103 colorectal carcinoma model): > 10 µM
- IC50 ([3]; SU103 human colorectal carcinoma organoid, 144 hrs, Colony Counts): > 10 µM
- IC50 ([4]; Homo sapiens, SU62 colorectal carcinoma model): < 0.15 µM
- IC50 ([4]; SU62 human colorectal carcinoma organoid, 144 hrs, Colony Counts): 0.149 µM
- mean IC50±SD, H3K36me3/actin band intensity ratio (H3K36me3): 0.085 ± 0.004 µM
- IC50 (HT-29; 168 hours): 0.0235 µM
- IC50 (HT-29; Homo sapiens, HT-29, 168 h): < 0.04 µM
